As a reminder, the Ki is the dissociation constant of the complex between target and ligand, obtained from inhibition or displacement. The EC50 is the concentration giving half of the maximal effect.

Numbered stars: 1 amine (or outer) side, 2 acyl side, 3 side chain; on linkers, the order of the positions; unused ones are H or OH. Square brackets hold non-standard residues; d marks the D form. Side chains are listed from the residue outwards. Peptide text beside a SMILES is read from it. * marks the point of attachment. Malonyl(2,2-Me2,histaminyl) = CC(C)(C(=O)NCCc1cnc[nH]1)C(=O)*; C20 diacid = O=C(O)CCCCCCCCCCCCCCCCCCC(=O)*; γGlu = O=C(O)[C@H](CCC(=O)[*:2])N[*:1]; Desaminohistidyl = O=C(CCc1c[nH]cn1)*; Desaminotyrosyl = O=C(CCc1ccc(O)cc1)*; AEEA = NCCOCCOCC(=O)O; Aib = CC(C)(N)C(=O)O

For test [1], the target named is T1, human GIP receptor (Homo sapiens, UniProt P48546).
T1 construct: expressed in transfected cells; crude membranes
T1 sequence (P48546 22-466): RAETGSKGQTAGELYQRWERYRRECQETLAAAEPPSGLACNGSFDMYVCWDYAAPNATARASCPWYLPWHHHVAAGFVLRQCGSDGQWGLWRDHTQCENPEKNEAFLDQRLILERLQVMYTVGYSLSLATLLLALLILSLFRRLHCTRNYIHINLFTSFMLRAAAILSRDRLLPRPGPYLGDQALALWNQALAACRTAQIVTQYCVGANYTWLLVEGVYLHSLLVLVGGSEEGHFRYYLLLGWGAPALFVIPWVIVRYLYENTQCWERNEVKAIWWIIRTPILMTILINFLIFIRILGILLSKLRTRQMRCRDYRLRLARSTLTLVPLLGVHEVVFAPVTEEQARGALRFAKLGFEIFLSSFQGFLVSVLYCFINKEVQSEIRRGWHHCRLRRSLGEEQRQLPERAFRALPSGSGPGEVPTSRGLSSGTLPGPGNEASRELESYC
The test can be described thus: [125I]-GIP binding (SPA), human GIP receptor. Particulars: read-out: hGIPR Ki, nM (SEM, n).

For test [2], the target named is T2, gastric inhibitory peptide receptor (GIPR) (Homo sapiens, UniProt P48546).
T2 sequence (P48546 22-466): T1 sequence (P48546 22-466)
As to the kind of experiment: cAMP pharmacological functional assay in presence of casein, hGIPR. The test is classed as cell-based. Particulars: HEK293 cells expressing hGIPR, 0.1% Casein, geometric mean; read-out: hGIPR cAMP Rel EC50 nM (SEM, n).

For test [3], the target named is T3, human Gcg receptor (Homo sapiens, UniProt P47871).
T3 construct: expressed in transfected cells; crude membranes
The test can be described thus: [125I]-Glucagon binding (SPA), human Gcg receptor. The note with it: read-out: hGLcgR Ki, nM (SEM, n). Summed up:
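Cell pellets were lysed in hypotonic Tris buffer, pH 7.5, homogenized, and spun at low then high speed to give crude membranes. Ki was derived from the fitted IC50.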

In test [4] the target is human GLP-1 receptor (GLP-1R) (Homo sapiens, UniProt P43220). As to the kind of experiment: cAMP pharmacological functional assay in presence of casein, hGLP-1R. The test is classed as cell-based. The note with it: HEK293 cells expressing hGLP-1R, 0.1% Casein, geometric mean; read-out: hGLP1R cAMP Rel EC50 nM (SEM, n).
Test [5] addresses human GLP-1R (Homo sapiens, UniProt P43220). The test can be described thus: [125I]-GLP-1 binding (SPA), human GLP-1 receptor. Details: expressed in transfected cells; crude membranes. The note with it: read-out: hGLP1R Ki, (nM) (SEM, n). Put shortly: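 Crude-membrane binding assay; one membrane prep included 1 mM MgCl2 and 25 units/ml DNAse I during lysis. Assay buffer at pH 7.4 contains 0.1% (w/v) bacitracin and 0.003% (w/v) TWEEN-20. Ki is reported as geometric mean.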

human GLP-1 receptor (GLP-1R), sequence (P43220 24-463): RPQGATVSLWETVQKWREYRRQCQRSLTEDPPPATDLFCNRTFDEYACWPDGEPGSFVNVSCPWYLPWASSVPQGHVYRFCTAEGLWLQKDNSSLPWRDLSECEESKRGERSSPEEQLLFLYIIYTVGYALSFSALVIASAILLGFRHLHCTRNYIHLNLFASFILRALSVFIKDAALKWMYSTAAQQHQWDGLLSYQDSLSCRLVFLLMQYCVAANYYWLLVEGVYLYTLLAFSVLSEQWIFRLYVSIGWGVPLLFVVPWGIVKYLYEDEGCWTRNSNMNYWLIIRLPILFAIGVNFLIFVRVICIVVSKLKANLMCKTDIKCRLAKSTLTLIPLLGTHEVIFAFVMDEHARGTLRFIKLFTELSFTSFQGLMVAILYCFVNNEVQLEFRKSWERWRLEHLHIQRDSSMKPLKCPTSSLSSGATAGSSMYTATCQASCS
human GLP-1R, sequence (P43220 24-463): as above
T3 sequence (P47871 26-477): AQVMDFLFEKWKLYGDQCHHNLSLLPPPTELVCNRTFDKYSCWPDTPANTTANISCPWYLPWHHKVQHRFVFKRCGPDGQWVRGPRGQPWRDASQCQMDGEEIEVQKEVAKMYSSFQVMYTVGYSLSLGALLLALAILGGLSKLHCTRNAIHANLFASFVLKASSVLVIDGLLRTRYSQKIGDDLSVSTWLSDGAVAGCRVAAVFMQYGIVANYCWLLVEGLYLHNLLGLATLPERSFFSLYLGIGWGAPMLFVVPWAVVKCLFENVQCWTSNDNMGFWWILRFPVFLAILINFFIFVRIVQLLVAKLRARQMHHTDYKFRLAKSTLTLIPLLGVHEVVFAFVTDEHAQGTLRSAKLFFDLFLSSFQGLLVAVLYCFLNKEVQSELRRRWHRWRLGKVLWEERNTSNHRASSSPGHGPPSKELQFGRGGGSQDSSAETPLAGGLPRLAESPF

In the case of `CC[C@H](C)[C@H](NC(=O)[C@H](CC(C)C)NC(=O)[C@H](Cc1ccc(O)cc1)NC(=O)[C@H](CCC(=O)O)NC(=O)[C@@H](NC(=O)[C@H](Cc1ccccc1)NC(=O)[C@H](C)NC(=O)C(C)(C)NC(=O)[C@H](CCC(N)=O)NC(=O)[C@H](C)NC(=O)[C@H](CCCCNC(=O)COCCOCCNC(=O)COCCOCCNC(=O)CC[C@H](NC(=O)CCCCCCCCCCCCCCCCCCC(=O)O)C(=O)O)NC(=O)[C@H](CCCCN)NC(=O)[C@H](CC(=O)O)NC(=O)[C@H](CC(C)C)NC(=O)[C@H](CC(C)C)NC(=O)[C@@H](NC(=O)[C@H](CO)NC(=O)[C@H](Cc1ccc(O)cc1)NC(=O)[C@H](CC(=O)O)NC(=O)[C@H](CO)NC(=O)[C@@H](NC(=O)[C@H](Cc1ccccc1)NC(=O)[C@@H](NC(=O)CNC(=O)[C@H](CCC(=O)O)NC(=O)C(C)(C)C(=O)NCCc1cnc[nH]1)[C@@H](C)O)[C@@H](C)O)[C@@H](C)CC)[C@@H](C)CC)C(=O)N[C@@H](CCC(=O)O)C(=O)NCC(=O)NCC(=O)N1CCC[C@H]1C(=O)N[C@@H](CO)C(=O)N[C@@H](CO)C(=O)NCC(=O)N[C@@H](C)C(=O)N1CCC[C@H]1C(=O)N1CCC[C@H]1C(=O)N1CCC[C@H]1C(=O)N[C@@H](CO)C(N)=O` [Example 105] ({Malonyl(2,2-Me2,histaminyl)}-EGTFTSDYSILLDKK([AEEA-AEEA-γGlu-C20 diacid])AQ[Aib]AFIEYLIEGGPSSGAPPPS-NH2), the figures for the Ki in test [1], in test [3] and in test [5] were 0.119 nM, 20.4 nM and 0.871 nM, respectively. Further, the EC50 in test [2] was 1.85 nM; in test [4], 0.0401 nM.
Consider `CC[C@H](C)[C@H](NC(=O)[C@H](CC(C)C)NC(=O)[C@H](Cc1ccc(O)cc1)NC(=O)[C@H](CCC(=O)O)NC(=O)[C@@H](NC(=O)[C@H](Cc1ccccc1)NC(=O)[C@H](C)NC(=O)C(C)(C)NC(=O)[C@H](CCC(N)=O)NC(=O)[C@H](C)NC(=O)[C@H](CCCCNC(=O)COCCOCCNC(=O)COCCOCCNC(=O)CC[C@H](NC(=O)CCCCCCCCCCCCCCCCCCC(=O)O)C(=O)O)NC(=O)[C@H](CCCCN)NC(=O)[C@H](CC(=O)O)NC(=O)[C@H](CC(C)C)NC(=O)[C@H](CC(C)C)NC(=O)[C@@H](NC(=O)[C@H](CO)NC(=O)[C@H](Cc1ccc(O)cc1)NC(=O)[C@H](CC(=O)O)NC(=O)[C@H](CO)NC(=O)[C@@H](NC(=O)[C@H](Cc1ccccc1)NC(=O)[C@@H](NC(=O)CNC(=O)[C@H](CCC(=O)O)NC(=O)C(C)(C)NC(=O)CCc1c[nH]cn1)[C@@H](C)O)[C@@H](C)O)[C@@H](C)CC)[C@@H](C)CC)C(=O)N[C@@H](CCC(=O)O)C(=O)NCC(=O)NCC(=O)N1CCC[C@H]1C(=O)N[C@@H](CO)C(=O)N[C@@H](CO)C(=O)NCC(=O)N[C@@H](C)C(=O)N1CCC[C@H]1C(=O)N1CCC[C@H]1C(=O)N1CCC[C@H]1C(=O)N[C@@H](CO)C(N)=O` [Example 106] (Desaminohistidyl-[Aib]EGTFTSDYSILLDKK([AEEA-AEEA-γGlu-C20 diacid])AQ[Aib]AFIEYLIEGGPSSGAPPPS-NH2), for which the Ki in test [1] came out at 0.179 nM; in test [3], 515 nM; in test [5] it was 1.2 nM. The results for the EC50 in test [2] and in test [4] were 6.54 nM and 0.0413 nM, respectively.
Taken in the same sequence, the figures for `CC[C@H](C)[C@H](NC(=O)[C@H](CC(C)C)NC(=O)[C@H](Cc1ccc(O)cc1)NC(=O)[C@H](CCC(=O)O)NC(=O)[C@@H](NC(=O)[C@H](Cc1ccccc1)NC(=O)[C@H](C)NC(=O)C(C)(C)NC(=O)[C@H](CCC(N)=O)NC(=O)[C@H](C)NC(=O)[C@H](CCCCNC(=O)COCCOCCNC(=O)COCCOCCNC(=O)CC[C@H](NC(=O)CCCCCCCCCCCCCCCCCCC(=O)O)C(=O)O)NC(=O)[C@H](CCCCN)NC(=O)[C@H](CC(=O)O)NC(=O)[C@H](CC(C)C)NC(=O)[C@H](CC(C)C)NC(=O)[C@@H](NC(=O)[C@H](CO)NC(=O)[C@H](Cc1ccc(O)cc1)NC(=O)[C@H](CC(=O)O)NC(=O)[C@H](CO)NC(=O)[C@@H](NC(=O)[C@H](Cc1ccccc1)NC(=O)[C@@H](NC(=O)CNC(=O)[C@H](CCC(=O)O)NC(=O)C(C)(C)NC(=O)CCc1ccc(O)cc1)[C@@H](C)O)[C@@H](C)O)[C@@H](C)CC)[C@@H](C)CC)C(=O)N[C@@H](CCC(=O)O)C(=O)NCC(=O)NCC(=O)N1CCC[C@H]1C(=O)N[C@@H](CO)C(=O)N[C@@H](CO)C(=O)NCC(=O)N[C@@H](C)C(=O)N1CCC[C@H]1C(=O)N1CCC[C@H]1C(=O)N1CCC[C@H]1C(=O)N[C@@H](CO)C(N)=O` [Example 107] (Desaminotyrosyl-[Aib]EGTFTSDYSILLDKK([AEEA-AEEA-γGlu-C20 diacid])AQ[Aib]AFIEYLIEGGPSSGAPPPS-NH2) were 0.0425 nM, 303 nM, 0.867 nM, 0.241 nM and 0.0539 nM.
`CC[C@H](C)[C@H](NC(=O)[C@H](CC(C)C)NC(=O)[C@H](Cc1ccc(O)cc1)NC(=O)[C@H](CCC(=O)O)NC(=O)[C@@H](NC(=O)[C@H](Cc1ccccc1)NC(=O)[C@H](C)NC(=O)C(C)(C)NC(=O)[C@H](CCC(N)=O)NC(=O)[C@H](C)NC(=O)[C@H](CCCCNC(=O)CCCCCCCNC(=O)COCCOCCNC(=O)CC[C@H](NC(=O)CCCCCCCCCCCCCCCCCCC(=O)O)C(=O)O)NC(=O)[C@H](CCCCN)NC(=O)[C@H](CC(=O)O)NC(=O)[C@H](CC(C)C)NC(=O)[C@H](CC(C)C)NC(=O)[C@@H](NC(=O)[C@H](CO)NC(=O)[C@H](Cc1ccc(O)cc1)NC(=O)[C@H](CC(=O)O)NC(=O)[C@H](CO)NC(=O)[C@@H](NC(=O)[C@H](Cc1ccccc1)NC(=O)[C@@H](NC(=O)CNC(=O)[C@H](CCC(=O)O)NC(=O)C(C)(C)NC(=O)[C@@H](N)Cc1ccc(O)cc1)[C@@H](C)O)[C@@H](C)O)[C@@H](C)CC)[C@@H](C)CC)C(=O)N[C@@H](CCC(=O)O)C(=O)NCC(=O)NCC(=O)N1CCC[C@H]1C(=O)N[C@@H](CO)C(=O)N[C@@H](CO)C(=O)NCC(=O)N[C@@H](C)C(=O)N1CCC[C@H]1C(=O)N1CCC[C@H]1C(=O)N1CCC[C@H]1C(=O)N[C@@H](CO)C(N)=O` [Example 109]: the Ki in test [1] amounted to 0.0279 nM; in test [3], 43.1 nM; in test [5], 1.34 nM. Further, the EC50 in test [2] came to 0.109 nM; in test [4], 0.35 nM.
Turning to `CC[C@H](C)[C@H](NC(=O)[C@H](CC(C)C)NC(=O)[C@H](Cc1ccc(O)cc1)NC(=O)[C@H](CCC(=O)O)NC(=O)[C@@H](NC(=O)[C@H](Cc1ccccc1)NC(=O)[C@H](C)NC(=O)C(C)(C)NC(=O)[C@H](CCC(N)=O)NC(=O)[C@H](C)NC(=O)[C@H](CCCCNC(=O)COCCOCCNC(=O)CC[C@H](NC(=O)[C@H]1CC[C@H](CNC(=O)CCCCCCCCCCCCCCCCCCC(=O)O)CC1)C(=O)O)NC(=O)[C@H](CCCCN)NC(=O)[C@H](CC(=O)O)NC(=O)[C@H](CC(C)C)NC(=O)[C@H](CC(C)C)NC(=O)[C@@H](NC(=O)[C@H](CO)NC(=O)[C@H](Cc1ccc(O)cc1)NC(=O)[C@H](CC(=O)O)NC(=O)[C@H](CO)NC(=O)[C@@H](NC(=O)[C@H](Cc1ccccc1)NC(=O)[C@@H](NC(=O)CNC(=O)[C@H](CCC(=O)O)NC(=O)C(C)(C)NC(=O)[C@@H](N)Cc1ccc(O)cc1)[C@@H](C)O)[C@@H](C)O)[C@@H](C)CC)[C@@H](C)CC)C(=O)N[C@@H](CCC(=O)O)C(=O)NCC(=O)NCC(=O)N1CCC[C@H]1C(=O)N[C@@H](CO)C(=O)N[C@@H](CO)C(=O)NCC(=O)N[C@@H](C)C(=O)N1CCC[C@H]1C(=O)N1CCC[C@H]1C(=O)N1CCC[C@H]1C(=O)N[C@@H](CO)C(N)=O` [Example 110], the Ki in test [1] turned out to be 0.0395 nM; in test [3] it was 73.9 nM; in test [5] it was 4.38 nM. Besides, the 50% effective concentration (EC50) in test [2] worked out at 0.218 nM; in test [4], 0.179 nM.

Values taken from patent US12252524B2, “GIP/GLP1 co-agonist compounds” (Eli Lilly and Company, priority 2018, dated 2025).
